System: trained panel of 4 to 8 people
Assay: Cooling intensity by isointensity method, trained panel tasting aqueous solutions versus WS 23
Assay type: in vivo, human
Conditions: aqueous solutions tasted, compared to aqueous solution of reference WS 23 at 2 ppm
Experimental: The cooling intensity of the compounds was determined by a trained panel of 4 to 8 people according to the isointensity method as described below.
Aqueous solutions of various concentrations of a chemical compound are prepared and tasted. The cooling intensity of each solution was compared to that of an aqueous solution of the reference compound at 2 ppm, namely N,2,3-trimethyl-2-isopropylbutanamde (WS 23).

`CC(C)C(C)(C(=O)Nc1ccc2c(c1)OCO2)C(C)C` [Ex. 2H, N-Benzo[1,3]dioxol-5-yl 2-methyl-2-isopropylisovaleramide] was tested. Which rel. cooling intensity did it give?
The rel. cooling intensity was 0.9.

How did the rel. cooling intensity turn out when `CC(C)C(C(=O)Nc1ccc(C#N)cc1)C(C)C` [Ex. 1, N-(4-cyanophenyl) 2-isopropylisovaleramide] was run?
Its rel. cooling intensity is 1.3.

With `CC(C)C(C)(C(=O)Nc1ccc(CC#N)cc1)C(C)C` [Ex. 2C, N-(4-Cyanomethyl-phenyl)-2-methyl-2-isopropyl-isovaleramide] as the compound, how does the rel. cooling intensity read?
Its rel. cooling intensity is 0.2.

For `CC(C)C(C)(C(=O)Nc1ccc(C#N)cc1)C(C)C` [Ex. 2A, N-(4-Cyanophenyl)2-methyl-2-isopropylisovaleramide], which rel. cooling intensity is on record?
Its rel. cooling intensity is 1.5.

For `COc1ccc(NC(=O)C(C(C)C)C(C)C)cc1` [Ex. 2E, N-(4-Methoxyphenyl)2-isopropylisovaleramide], which rel. cooling intensity is on record?
The rel. cooling intensity was 1.1.

`COc1ccc(NC(=O)C(C)(C(C)C)C(C)C)c(OC)c1` [Ex. 2G] was tested. Which rel. cooling intensity did it give?
The rel. cooling intensity was 0.9.

`COc1cc(CNC(=O)C(C)(C(C)C)C(C)C)ccc1O` [Ex. 2I, N-Vanillyl 2-methyl-2-isopropylisovaleramide] was tested. Which rel. cooling intensity did it give?
The rel. cooling intensity was 0.8.

`COc1ccc(NC(=O)C(C)(C(C)C)C(C)C)cc1` [Ex. 2B, N-(4-Methoxyphenyl)2-methyl-2-isopropylisovaleramide] was tested. Which rel. cooling intensity did it give?
Its rel. cooling intensity is 1.1.

How did the rel. cooling intensity turn out when `CC(C)C(C(=O)Nc1ccccc1C#N)C(C)C` [Ex. 2F, N-(2-Cyanophenyl)2-isopropylisovaleramide] was run?
Its rel. cooling intensity is 1.7.

Reference: US20080112899A1, “Carboxamides and Their Use” (priority 2004, published 2008)
